Experimental data as given in article PMC11243039, “Antimicrobial, Antioxidant, and Antityrosinase Activities of Morina persica L. and Its Isolated Compounds” (Molecules, 2024).
In brackets after ≈: the same amount, converted by molar mass.

Biological target: T1, mushroom tyrosinase
T1 construct: gene PPO3; native mushroom enzyme preparation
Assay: absorbance at […] nm, L-DOPA oxidation (modified Masuda method)
Type: biochemical
Conditions: L-DOPA substrate, phosphate buffer pH 6.8, 23 °C, 10 min preincubation

IC50 | Compound
297.9 ± 1.2 µg/mL (≈ 664 µM) | O=c1c(O[C@@H]2O[C@H](CO)[C@@H](O)[C@H](O)[C@H]2O)c(-c2ccc(O)cc2)oc2cc(O)cc(O)c12 [MP-1, Kaempferol-3-O-β-glucopyranoside]
115.2 ± 0.8 µg/mL (≈ 189 µM) | C[C@@H]1O[C@@H](OC[C@H]2O[C@@H](Oc3c(-c4ccc(O)c(O)c4)oc4cc(O)cc(O)c4c3=O)[C@H](O)[C@@H](O)[C@@H]2O)[C@H](O)[C@H](O)[C@H]1O [MP-2, Quercetin-3-O-rutinoside]
